According to ChEMBL document CHEMBL1126862, “Substituted 3-phenylpiperidines: new centrally acting dopamine autoreceptor antagonists” (J Med Chem, 1993):

What was measured:
[1] = system: Rattus norvegicus; assay: Evaluated for DOPA accumulation in striatum of nonpretreated rat at 52 umol / kg administered subcutaneously; type: functional
[2] = system: Rattus norvegicus; assay: Evaluated for DOPA accumulation in limbic region of nonpretreated rat at 52 umol / kg administered subcutaneously; type: functional, Limbic system
[3] = system: Rattus norvegicus; assay: Evaluated for 5-HTP increase in limbic region of nonpretreated rat at 52 umol / kg administered subcutaneously; type: functional, Limbic system
[4] = system: Rattus norvegicus; assay: Evaluated for 5-HTP increase in hemisphere region of nonpretreated rat at 100 umol / kg administered subcutaneously; type: functional
[5] = target: T1, D(4) dopamine receptor (Homo sapiens, UniProt P21917)
T1 sequence (P21917 whole entry): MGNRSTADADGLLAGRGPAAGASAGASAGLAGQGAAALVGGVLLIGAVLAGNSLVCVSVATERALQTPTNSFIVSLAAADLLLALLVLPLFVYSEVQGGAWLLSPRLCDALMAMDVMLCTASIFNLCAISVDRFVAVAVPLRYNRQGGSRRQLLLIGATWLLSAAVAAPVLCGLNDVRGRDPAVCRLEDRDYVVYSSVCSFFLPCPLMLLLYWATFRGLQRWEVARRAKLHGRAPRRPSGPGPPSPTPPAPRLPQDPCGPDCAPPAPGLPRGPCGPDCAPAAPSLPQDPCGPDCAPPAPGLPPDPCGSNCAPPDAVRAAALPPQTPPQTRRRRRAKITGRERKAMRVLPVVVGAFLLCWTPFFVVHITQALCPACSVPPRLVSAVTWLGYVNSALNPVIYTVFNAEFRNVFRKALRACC
Description: (§1) Binding towards dopamine receptor D4 expressed in CHO-K1 cells using [3H]spiperone

[6] = system: Rattus norvegicus; assay: Evaluated for DOPA accumulation in limbic region of nonpretreated rat at 200 umol / kg administered subcutaneously; type: functional, Limbic system
[7] = system: Rattus norvegicus; assay: Evaluated for DOPA accumulation in striatum of nonpretreated rat at 25 umol / kg administered subcutaneously; type: functional
[8] = species: Rattus norvegicus; assay: Rat locomotor activity in reserpine pretreated rats and accumulated counts / 30 min is calculated; type: functional
[9] = target: T2, D(2) dopamine receptor (Bos taurus, UniProt P20288); assay: Evaluated for binding towards Dopamine receptor D2 using [3H]-spiperone as radioligand, in cloned mammalian receptors expressed in CHO-K1 cells; type: cell-based
[10] = system: Rattus norvegicus; assay: Evaluated for DOPA accumulation in striatum of reserpine pretreated rat at 100 umol / kg administered intraperitoneally; type: functional
[11] = species: Rattus norvegicus; assay: Evaluated for rat locomotor activity in nonhabituated rats at 25 umol / kg; type: functional
[12] = target: T3, Sigma non-opioid intracellular receptor 1 (Rattus norvegicus, UniProt Q9R0C9); assay: Binding affinity for sigma receptor using 2 nM of [3H]DTG as radioligand, in membranes from brain minus cerebellum; type: tissue-based
[13] = target: D(3) dopamine receptor (Homo sapiens, UniProt P35462)
Description: Binding towards Dopamine receptor D3 expressed in CHO-K1 cells using [3H]spiperone

[14] = target: T4, D(2) dopamine receptor (Rattus norvegicus, UniProt P61169); assay: Evaluated for binding towards Dopamine receptor D2 using [3H]N-0437 as radioligand from rat striatal membrane
[15] = system: Rattus norvegicus; assay: Evaluated for DOPA accumulation in limbic region of reserpine pretreated rat at 52 umol / kg administered subcutaneously; type: functional, Limbic system
[16] = species: Rattus norvegicus; assay: Evaluated for rat locomotor activity in nonpretreated habituated rats at 100 umol / kg; type: functional; set-up: unit not given beside the values
[17] = system: Rattus norvegicus; assay: Evaluated for 5-HTP increase in limbic region of nonpretreated rat at 200 umol / kg administered subcutaneously; type: functional, Limbic system
[18] = system: Rattus norvegicus; assay: Evaluated for rat locomotor activity in nonhabituated rats at 200 umol / kg administered subcutaneously; type: functional
[19] = system: Rattus norvegicus; assay: Evaluated for 5-HTP increase in hemisphere region of nonpretreated rat at 200 umol / kg administered subcutaneously; type: functional
[20] = target: T4, D(2) dopamine receptor; assay: Binding towards Dopamine receptor D2 using [3H]spiperone from rat striatal membrane
[21] = target: T2, D(2) dopamine receptor; assay: Binding towards Dopamine receptor D2 expressed in CHO-K1 cells using [3H]U-86170; type: cell-based
[22] = system: Rattus norvegicus; assay: Evaluated for DOPA accumulation in limbic region of nonpretreated rat at 25 umol / kg administered subcutaneously; type: functional, Limbic system
[23] = system: Rattus norvegicus; assay: Evaluated for DOPA accumulation in striatum of nonpretreated rat at 200 umol / kg administered subcutaneously; type: functional
[24] = system: Rattus norvegicus; assay: Evaluated in rat striatum for the effect on dopamine release and metabolism in brain dialysis model after administration of 50 umol / kg subcutaneously; type: functional; set-up: unit not given beside the values
[25] = system: Rattus norvegicus; assay: Evaluated for DOPA accumulation in limbic region of reserpine pretreated rat at 100 umol / kg administered intraperitoneally; type: functional, Limbic system
[26] = system: Rattus norvegicus; assay: Evaluated for rat locomotor activity in nonhabituated rats at 213 umol / kg administered subcutaneously; type: functional
[27] = system: Rattus norvegicus; assay: Evaluated in rat striatum for the effect on DOPAC release and metabolism in brain dialysis model after administration of 50 umol / kg subcutaneously; type: functional; set-up: unit not given beside the values
[28] = system: Rattus norvegicus; assay: Evaluated for 5-HTP increase in limbic region of nonpretreated rat at 100 umol / kg administered subcutaneously; type: functional, Limbic system
[29] = system: Rattus norvegicus; assay: Evaluated for DOPA accumulation in striatum of nonpretreated rat at 100 umol / kg administered subcutaneously; type: functional
[30] = system: Rattus norvegicus; assay: Evaluated in rat accumbens for the effect on dopamine release and metabolism in brain dialysis model after administration of 50 umol / kg subcutaneously; type: functional
[31] = target: T3, Sigma non-opioid intracellular receptor 1; assay: Binding effinity for sigma receptor using 2 nM of [3H]DTG as radioligand, in membranes from brain minus cerebellum; type: tissue-based
[32] = species: Rattus norvegicus; assay: Evaluated for rat locomotor activity in nonpretreated habituated rats at 25 umol / kg; type: functional
[33] = system: Rattus norvegicus; assay: Evaluated for DOPA accumulation in limbic region of nonpretreated rat at 100 umol / kg administered subcutaneously; type: functional, Limbic system
[34] = target: T1, D(4) dopamine receptor; conditions: cho-k1
Description: as §1

[35] = system: Rattus norvegicus; assay: Evaluated for DOPA accumulation in limbic region of reserpine pretreated rat at 27 umol / kg administered subcutaneously; type: functional, Limbic system
[36] = system: Rattus norvegicus; assay: Evaluated in rat accumbens for the effect on DOPAC release and metabolism in brain dialysis model after administration of 50 umol / kg subcutaneously; type: functional
[37] = system: Rattus norvegicus; assay: Evaluated for 5-HTP increase in limbic region of nonpretreated rat at 27 umol / kg administered subcutaneously; type: functional, Limbic system
[38] = system: Rattus norvegicus; assay: Evaluated for 5-HTP increase in hemisphere region of nonpretreated rat at 27 umol / kg administered subcutaneously; type: functional

T2 sequence (P20288 whole entry): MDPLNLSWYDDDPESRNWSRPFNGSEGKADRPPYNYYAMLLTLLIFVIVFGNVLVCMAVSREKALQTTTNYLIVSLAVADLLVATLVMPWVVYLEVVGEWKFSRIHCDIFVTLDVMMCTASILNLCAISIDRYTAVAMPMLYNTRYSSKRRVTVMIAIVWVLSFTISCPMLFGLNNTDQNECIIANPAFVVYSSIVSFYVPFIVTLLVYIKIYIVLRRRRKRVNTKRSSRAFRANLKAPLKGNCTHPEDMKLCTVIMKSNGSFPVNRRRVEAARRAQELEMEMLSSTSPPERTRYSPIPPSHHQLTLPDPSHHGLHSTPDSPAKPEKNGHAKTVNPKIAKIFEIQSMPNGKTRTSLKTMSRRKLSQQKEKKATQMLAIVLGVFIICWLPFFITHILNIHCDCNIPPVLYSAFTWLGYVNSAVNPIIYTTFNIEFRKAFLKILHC
T4 sequence (P61169 whole entry): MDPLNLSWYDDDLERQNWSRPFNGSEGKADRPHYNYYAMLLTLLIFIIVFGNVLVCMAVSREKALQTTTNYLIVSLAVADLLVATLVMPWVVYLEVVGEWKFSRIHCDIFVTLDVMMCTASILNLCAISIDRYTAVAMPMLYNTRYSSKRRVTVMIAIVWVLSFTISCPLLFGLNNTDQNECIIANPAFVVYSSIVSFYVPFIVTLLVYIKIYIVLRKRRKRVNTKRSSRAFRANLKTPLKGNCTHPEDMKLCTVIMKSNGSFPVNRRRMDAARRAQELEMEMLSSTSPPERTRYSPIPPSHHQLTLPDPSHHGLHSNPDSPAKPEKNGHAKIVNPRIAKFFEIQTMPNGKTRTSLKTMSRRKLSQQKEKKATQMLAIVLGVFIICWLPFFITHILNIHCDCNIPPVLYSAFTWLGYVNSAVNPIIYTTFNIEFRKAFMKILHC
T3 sequence (Q9R0C9 whole entry): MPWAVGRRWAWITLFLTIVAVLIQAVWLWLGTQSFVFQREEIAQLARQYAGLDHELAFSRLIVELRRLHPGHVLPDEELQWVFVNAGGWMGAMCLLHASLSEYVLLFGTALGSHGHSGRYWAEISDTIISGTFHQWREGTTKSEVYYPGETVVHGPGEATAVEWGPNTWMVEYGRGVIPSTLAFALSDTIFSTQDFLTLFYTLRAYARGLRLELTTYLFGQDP
Sequence of D(3) dopamine receptor (P35462 whole entry): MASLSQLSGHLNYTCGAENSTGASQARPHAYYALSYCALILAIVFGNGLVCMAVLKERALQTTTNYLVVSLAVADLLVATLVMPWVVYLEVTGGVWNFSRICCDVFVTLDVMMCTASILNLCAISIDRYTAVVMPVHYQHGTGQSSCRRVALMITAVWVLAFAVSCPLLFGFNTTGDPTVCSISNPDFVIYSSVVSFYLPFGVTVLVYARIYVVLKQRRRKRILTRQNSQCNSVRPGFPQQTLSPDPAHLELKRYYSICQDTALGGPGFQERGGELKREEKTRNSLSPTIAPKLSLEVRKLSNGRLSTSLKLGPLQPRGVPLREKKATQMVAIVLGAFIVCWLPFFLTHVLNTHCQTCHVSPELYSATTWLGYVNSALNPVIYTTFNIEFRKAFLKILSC

## CCCN1CCCC(c2cccc(C#N)c2)C1 (racemic)
[1]
  Activity: 281
[2]
  Activity: 198
[3]
  Activity: 99
[4]
  Activity: 103

## CCCN1CCCC(c2cccc(C#N)c2)C1 (single isomer, unassigned; (+))
[5]
  Ki: > 933 nM
[6]
  Activity: 94
[7]
  Activity: 84
[8]
  Activity: 6
[9]
  Ki: > 2000 nM
[10]
  Activity: 81
[11]
  Activity: 104
[12]
  IC50: 520 nM
[13]
  Ki: > 1420 nM
[14]
  Ki: 4900 nM
[15]
  Activity: 93
[16]
  Activity: 559
[17]
  Activity: 71
[18]
  Activity: 118
[19]
  Activity: 94
[20]
  Ki: 12600 nM
[21]
  Ki: 1720 nM
[22]
  Activity: 109
[23]
  Activity: 78

## CCCN1CCCC(c2cccc(O)c2)C1 (single isomer, unassigned; (+))
[5]
  Ki: > 1000 nM
[24]
  Activity: 28
[7]
  Activity: 43
[8]
  Activity: 78
[9]
  Ki: 776 nM
[11]
  Activity: 75
[25]
  Activity: 18
[26]
  Activity: 230
[27]
  Activity: 42
[21]
  Ki: 32 nM
[22]
  Activity: 37

## CCCN1CCCC(c2cccc(C#N)c2)C1 (single isomer, unassigned; (-))
[24]
  Activity: 295
[28]
  Activity: 148
[7]
  Activity: 285
[8]
  Activity: 12
[9]
  Ki: 889 nM
[10]
  Activity: 105
[29]
  Activity: 268
[30]
  Activity: 294
[31]
  IC50: 2200 nM
[13]
  Ki: 249 nM
[32]
  Activity: 418
[27]
  Activity: 299
[14]
  Ki: 396 nM
[15]
  Activity: 136
[16]
  Activity: 719
[33]
  Activity: 219
[20]
  Ki: 1140 nM
[34]
  Ki: > 933 nM
[21]
  Ki: 119 nM
[22]
  Activity: 204

## CCCN1CCCC(c2cccc(O)c2)C1 (single isomer, unassigned; (-))
[5]
  Ki: 130 nM
[24]
  Activity: 700
[7]
  Activity: 147
[8]
  Activity: 12
[9]
  Ki: 137 nM
[11]
  Activity: 74
[30]
  Activity: 98
[35]
  Activity: 30
[26]
  Activity: 40
[27]
  Activity: 70
[16]
  Activity: 208
[36]
  Activity: 115
[37]
  Activity: 89
[38]
  Activity: 87
[21]
  Ki: 8.5 nM
[22]
  Activity: 91
